Columns and labels:
γ-secretase = experiment: Cellular γ-secretase assay (Aβ42 secretion); assay type: cell-based; conditions: inhibition of Aβ42 secretion; human neuroglioma H4 cells overexpressing human APP; 22 hrs incubation; read-out: EC50 in vitro
Description: Cellular γ-Secretase Assay
Human neuroglioma H4 cells overexpressing human APP were plated at 30,000 cells/well/200 μl in 96-well plates in IMDM media containing 10% FCS, 0.2 mg/l Hygromycin B and incubated for 2 h at 37° C., 5% CO2 prior to adding test compounds.
Compounds for testing were dissolved in 100% Me2SO yielding in a 10 mM stock solution. Typically 12 μl of these solutions were further diluted in 1000 μl of IMDM media (w/o FCS,). Sub sequential 1:1 dilutions gave a ten point dose response curve. 100 μl of each dilution was added to the cells in 96-well plates. Appropriate controls using vehicle only and reference compound were applied to this assay. The final concentration of Me2SO was 0.4%.
After incubation for 22 hrs at 37° C., 5% CO2, 50 μl supernatant was transferred into round-bottom 96-well polypropylene plates for detection of Aβ42. 50 μl assay buffer (50 mM Tris/Cl, pH 7.4, 60 mM NaCl, 0.5% BSA, 1% TWEEN 20) was added to the wells followed by the addition of 100 μl of detection antibody (ruthenylated Aβ42-specific antibody BAP15 0.0625 μg/mL in assay buffer). 50 μl of a premix of capture antibody (biotinylated 6E10 antibody, 1 μg/mL) and Steptavidin-coated magnetic beads (Dynal M-280, 0.125 mg/mL) were preincubated for 1 hr at room temperature before adding the assay plates. Assay plates were incubated on a shaker for 3 hrs at room temperature and finally read in the Bioveris M8 Analyser according to the manufacturer's instructions (Bioveris).
EC50 values for inhibition of Aβ42 secretion were calculated by nonlinear regression fit analysis using XLfit 4.0 software (IDBS).

Row | SMILES | melting point | EC50 (γ-secretase)
1 | COc1cc(Nc2ncc3c(n2)C(c2ccc(Cl)c(Cl)c2)CCC3)ccc1-n1cnc(C)c1 (stereo not drawn) [Example 49, [8-(3,4-Dichloro-phenyl)-5,6,7,8-tetrahydro-quinazolin-2-yl]-[3-methoxy-4-(4-methyl-imidazol-1-yl)-phenyl]-amine] | 167 to 169 °C | –
2 | COc1ccccc1C1CCCc2sc(Nc3ccc(-n4cnc(C)c4)c(F)c3)nc21 (stereo not drawn) [Example 35, [3-Fluoro-4-(4-methyl-imidazol-1-yl)-phenyl]-[4-(2-methoxy-phenyl)-4,5,6,7-tetrahydro-benzothiazol-2-yl]-amine] | 227 to 230 °C | 340 nM
3 | COc1cc(Nc2ncc3c(n2)C(c2cccc(C(F)(F)F)c2)CCC3)ccc1-n1cnc(C)c1 (stereo not drawn) [Example 47, [3-Methoxy-4-(4-methyl-imidazol-1-yl)-phenyl]-[8-(3-trifluoromethyl-phenyl)-5,6,7,8-tetrahydro-quinazolin-2-yl]-amine] | 213 to 215 °C | –
4 | COc1cc(Nc2ncc3c(n2)C(C)(c2ccccc2)CCC3)ccc1-n1cnc(C)c1 (stereo not drawn) [Example 45, [3-Methoxy-4-(4-methyl-imidazol-1-yl)-phenyl]-(8-methyl-8-phenyl-5,6,7,8-tetrahydro-quinazolin-2-yl)-amine] | 207 to 209 °C | –
5 | COc1cc(Nc2ncc3c(n2)C(c2ccc(Cl)cc2)CCC3)ccc1-n1cnc(C)c1 (stereo not drawn) [Example 50, [8-(4-Chloro-phenyl)-5,6,7,8-tetrahydro-quinazolin-2-yl]-[3-methoxy-4-(4-methyl-imidazol-1-yl)-phenyl]-amine] | 210 to 212 °C | 380 nM
6 | Cc1cn(-c2ccc(Nc3nc4c(s3)CCCC4c3ccc(Cl)cc3Cl)cc2F)cn1 (stereo not drawn) [Example 36, [4-(2,4-Dichloro-phenyl)-4,5,6,7-tetrahydro-benzothiazol-2-yl]-[3-fluoro-4-(4-methyl-imidazol-1-yl)-phenyl]-amine] | 136 to 139 °C | 460 nM
7 | COc1cc(Nc2ncc3c(n2)C(CC#N)(c2ccc(Cl)cc2)CCC3)ccc1-n1cnc(C)c1 (stereo not drawn) [Example 52, {8-(4-Chloro-phenyl)-2-[3-methoxy-4-(4-methyl-imidazol-1-yl)-phenylamino]-5,6,7,8-tetrahydro-quinazolin-8-yl}-acetonitrile] | 156 to 158 °C | –
8 | Cc1cn(-c2ccc(Nc3nc4c(s3)CCCC4c3ccccc3Cl)cc2F)cn1 (stereo not drawn) [Example 33, [4-(2-Chloro-phenyl)-4,5,6,7-tetrahydro-benzothiazol-2-yl]-[3-fluoro-4-(4-methyl-imidazol-1-yl)-phenyl]-amine] | 204 to 206 °C | 430 nM
9 | COc1cc(Nc2nc3c(s2)CCCC3(C)c2ccccc2)ccc1-n1cnc(C)c1 (stereo not drawn) [Example 30, [3-Methoxy-4-(4-methyl-imidazol-1-yl)-phenyl]-(4-methyl-4-phenyl-4,5,6,7-tetrahydro-benzothiazol-2-yl)-amine] | 123 to 126 °C | 300 nM
10 | COc1cc(Nc2nc(O)c3c(n2)C(c2ccccc2)CN(C)C3)ccc1-n1cnc(C)c1 (stereo not drawn) [Example 53, 2-[3-Methoxy-4-(4-methyl-imidazol-1-yl)-phenylamino]-6-methyl-8-phenyl-5,6,7,8-tetrahydro-pyrido[4,3-d]pyrimidin-4-ol] | 152 to 155 °C | –
11 | Cc1cn(-c2ccc(Nc3nc4c(s3)CCCC4c3ccc(OC(F)(F)F)cc3)cc2F)cn1 (stereo not drawn) [Example 34, [3-Fluoro-4-(4-methyl-imidazol-1-yl)-phenyl]-[4-(4-trifluoromethoxy-phenyl)-4,5,6,7-tetrahydro-benzothiazol-2-yl]-amine] | 148 to 151 °C | –
12 | COc1cc(Nc2ncc3c(n2)C(c2ccc(Cl)cc2Cl)CCC3)ccc1-n1cnc(C)c1 (stereo not drawn) [Example 48, [8-(2,4-Dichloro-phenyl)-5,6,7,8-tetrahydro-quinazolin-2-yl]-[3-methoxy-4-(4-methyl-imidazol-1-yl)-phenyl]-amine] | 256 to 258 °C | –
13 | Cc1cn(-c2ccc(Nc3nc4c(s3)CCCC4c3ccc(C)c(C(F)(F)F)c3)cc2F)cn1 (stereo not drawn) [Example 32, [3-Fluoro-4-(4-methyl-imidazol-1-yl)-phenyl]-[4-(4-methyl-3-trifluoromethyl-phenyl)-4,5,6,7-tetrahydro-benzothiazol-2-yl]-amine] | 160 to 163 °C | 260 nM

Next, values leading:

Row | melting point | EC50 (γ-secretase) | SMILES
14 | 142 to 145 °C | – | CCOC(=O)C1CCCc2cnc(Nc3ccc(-n4cnc(C)c4)c(F)c3)nc21 (stereo not drawn) [Example 59, Ethyl 2-[3-fluoro-4-(4-methyl-imidazol-1-yl)-phenylamino]-5,6,7,8-tetrahydro-quinazoline-8-carboxylate]
15 | 200 to 202 °C | – | Cc1cn(-c2ccc(Nc3ncc4c(n3)C(c3cc(C(F)(F)F)cc(C(F)(F)F)c3)CCC4)cc2F)cn1 (stereo not drawn) [Example 61, [8-(3,5-Bis-trifluoromethyl-phenyl)-5,6,7,8-tetrahydro-quinazolin-2-yl]-[3-fluoro-4-(4-methyl-imidazol-1-yl)-phenyl]-amine]
16 | 150 to 152 °C | – | COc1cc(Nc2ncc3c(n2)C(C(=O)N(C)C)CCC3)ccc1-n1cnc(C)c1 (stereo not drawn) [Example 86, 2-[3-Methoxy-4-(4-methyl-imidazol-1-yl)-phenylamino]-5,6,7,8-tetrahydro-quinazoline-8-carboxylic acid dimethylamide]
17 | 214 to 216 °C | – | COc1cc(Nc2ncc3c(n2)C(N2CCOCC2)CCC3)ccc1-n1cnc(C)c1 (stereo not drawn) [Example 81, [3-Methoxy-4-(4-methyl-imidazol-1-yl)-phenyl]-(8-morpholin-4-yl-5,6,7,8-tetrahydro-quinazolin-2-yl)-amine]
18 | 180 to 182 °C | – | COC(=O)C1CC2(Cc3cnc(Nc4ccc(-n5cnc(C)c5)c(OC)c4)nc31)OCCO2 (stereo not drawn) [Example 55, Methyl 6,6-ethylendioxy-2-[3-methoxy-4-(4-methyl-imidazol-1-yl)-phenylamino]-5,6,7,8-tetrahydro-quinazoline-8-carboxylate]
19 | 157 to 158 °C | – | Cc1cn(-c2ccc(Nc3ncc4c(n3)C(C)(c3ccccc3)CCC4)cc2F)cn1 (stereo not drawn) [Example 56, [3-Fluoro-4-(4-methyl-imidazol-1-yl)-phenyl]-(8-methyl-8-phenyl-5,6,7,8-tetrahydro-quinazolin-2-yl)-amine]
20 | 94 to 95 °C | – | COc1cc(Nc2ncc3c(n2)C(C(=O)N2CCCC2)CCC3)ccc1-n1cnc(C)c1 (stereo not drawn) [Example 87, {2-[3-Methoxy-4-(4-methyl-imidazol-1-yl)-phenylamino]-5,6,7,8-tetrahydro-quinazolin-8-yl}-pyrrolidin-1-yl-methanone]
21 | 212 to 214 °C | – | COc1cc(Nc2ncc3c(n2)C(c2nc(C)no2)CCC3)ccc1-n1cnc(C)c1 (stereo not drawn) [Example 64, [3-Methoxy-4-(4-methyl-imidazol-1-yl)-phenyl]-[8-(3-methyl-[1,2,4]oxadiazol-5-yl)-5,6,7,8-tetrahydro-quinazolin-2-yl]-amine]
22 | 162 to 164 °C | – | CCOC(=O)C1CCCc2cnc(Nc3ccc(-n4cnc(C)c4)c(OC)c3)nc21 (stereo not drawn) [Example 54, Ethyl 2-[3-methoxy-4-(4-methyl-imidazol-1-yl)-phenylamino]-5,6,7,8-tetrahydro-quinazoline-8-carboxylate]
23 | 201 to 203 °C | 500 nM | Cc1cn(-c2ccc(Nc3ncc4c(n3)C(c3ccc(F)cc3)CCC4)cc2F)cn1 (stereo not drawn) [Example 60, [3-Fluoro-4-(4-methyl-imidazol-1-yl)-phenyl]-[8-(4-fluoro-phenyl)-5,6,7,8-tetrahydro-quinazolin-2-yl]-amine]

Reference: patent publication US7923450B2, “Modulators for amyloid beta” (Hoffmann-La Roche Inc., priority 2008, dated 2011)
